Measurements reported in ChEMBL document CHEMBL4428075, “New antiproliferative 7-(4-(N-substituted carbamoylmethyl)piperazin-1-yl) derivatives of ciprofloxacin induce cell cycle arrest at G2/M phase” (Bioorg Med Chem, 2016).
pIC50: −log10 of the molar value.

Key:
A549 [1] = test: Induction of cell cycle arrest in human A549 cells assessed as accumulation at G1 phase at 1 uM after 24 hrs by FITC-labeled anti-BrdU antibody/7AAD staining based FACS calibur flow cytometric analysis (reference value: 65.9 %); assay type: functional
WI-38 = test: Antiproliferative activity against human WI38 cells after 24 hrs by BrdU incorporation assay; assay type: cell-based; settings: WI-38, 24 h
A549 [2] = test: Induction of cell cycle arrest in human A549 cells assessed as accumulation at G2/M phase at 1 uM after 24 hrs by FITC-labeled anti-BrdU antibody/7AAD staining based FACS calibur flow cytometric analysis (reference value: 12.61 %); assay type: functional
A549 [3] = test: Induction of cell cycle arrest in human A549 cells assessed as accumulation at S phase at 1 uM after 24 hrs by FITC-labeled anti-BrdU antibody/7AAD staining based FACS calibur flow cytometric analysis (reference value: 20.9 %); assay type: functional
A549 [4] = test: Induction of cell cycle arrest in human A549 cells assessed as accumulation at sub G1 phase at 1 uM after 24 hrs by FITC-labeled anti-BrdU antibody/7AAD staining based FACS calibur flow cytometric analysis (reference value: 0.82 %); assay type: functional
A549 [5] = test: Antiproliferative activity against human A549 cells after 24 hrs by BrdU incorporation assay; assay type: functional, cell-based; settings: A549, 24 h
A549 [6] = test: Induction of cell cycle arrest in human A549 cells assessed as accumulation at G1 phase at 100 uM after 24 hrs by FITC-labeled anti-BrdU antibody/7AAD staining based FACS calibur flow cytometric analysis (reference value: 65.9 %); assay type: functional
A549 [7] = test: Induction of cell cycle arrest in human A549 cells assessed as accumulation at G2/M phase at 100 uM after 24 hrs by FITC-labeled anti-BrdU antibody/7AAD staining based FACS calibur flow cytometric analysis (reference value: 12.61 %); assay type: functional
A549 [8] = test: Induction of cell cycle arrest in human A549 cells assessed as accumulation at S phase at 100 uM after 24 hrs by FITC-labeled anti-BrdU antibody/7AAD staining based FACS calibur flow cytometric analysis (reference value: 20.9 %); assay type: functional
A549 [9] = test: Induction of cell cycle arrest in human A549 cells assessed as accumulation at sub G1 phase at 100 uM after 24 hrs by FITC-labeled anti-BrdU antibody/7AAD staining based FACS calibur flow cytometric analysis (reference value: 0.82 %); assay type: functional

| Structure (SMILES) | pIC50 (A549 [5]) | pIC50 (WI-38) | further results |
| --- | --- | --- | --- |
| COc1cccc2c1C(=O)c1c(O)c3c(c(O)c1C2=O)C[C@@](O)(C(=O)CO)C[C@@H]3O[C@H]1C[C@H](N)[C@H](O)[C@H](C)O1 [DOXORUBICIN] |  | 4.91 | Activity (A549 [1]): 56.5%; Activity (A549 [2]): 22.5%; Activity (A549 [3]): 15.4%; Activity (A549 [4]): 6.75% |
| COc1ccccc1NC(=O)CN1CCN(c2cc3c(cc2F)c(=O)c(C(=O)O)cn3C2CC2)CC1 | < 4.00 | < 4.00 |  |
| O=C(CN1CCN(c2cc3c(cc2F)c(=O)c(C(=O)O)cn3C2CC2)CC1)Nc1ccccc1 | < 4.00 | < 4.00 |  |
| O=C(O)c1cn(C2CC2)c2cc(N3CCNCC3)c(F)cc2c1=O [CIPROFLOXACIN] | < 4.00 | < 4.00 | Activity (A549 [6]): 61%; Activity (A549 [7]): 16.8%; Activity (A549 [8]): 3.8%; Activity (A549 [9]): 9.5% |

The remaining molecules from weak to strong by pIC50 (A549 [5]), led by results:

| pIC50 (A549 [5]) | Structure (SMILES) | pIC50 (WI-38) | further results |
| --- | --- | --- | --- |
| 4.63 | Cc1ccc(NC(=O)CN2CCN(c3cc4c(cc3F)c(=O)c(C(=O)O)cn4C3CC3)CC2)cc1 | < 4.00 |  |
| 4.68 | O=C(CN1CCN(c2cc3c(cc2F)c(=O)c(C(=O)O)cn3C2CC2)CC1)NC1CCCCC1 | < 4.00 |  |
